Where a name gives a salt, the structure may show the parent alone. Read-outs that look alike come from different tables or passages of the source.
How the values were obtained:
D2 dopamine receptors = D2 dopamine receptors (Rattus norvegicus, UniProt P61169); assay: biochemical; assay type: binding, rat (male Charles River CD)
α2-adrenoceptors = biological target: T1, α2-adrenoceptors (Rattus norvegicus, UniProt P22909); assay: inhibition of tritiated ligand (tritiated idazoxan) binding to α2-adrenoceptors in vitro (frontal cortical tissue); set-up: species or system rat (male Charles River CD); settings: for Ki: 0° C., 75 minutes, > from highest concentration which displaced ≤50% of the ligand; for inhibition at 1 µM: read-out: % displacement at 10^-6 M, α2, 10^-6 M, rat frontal cortical tissue, tritiated idazoxan
T1 sequence (P22909 1-465): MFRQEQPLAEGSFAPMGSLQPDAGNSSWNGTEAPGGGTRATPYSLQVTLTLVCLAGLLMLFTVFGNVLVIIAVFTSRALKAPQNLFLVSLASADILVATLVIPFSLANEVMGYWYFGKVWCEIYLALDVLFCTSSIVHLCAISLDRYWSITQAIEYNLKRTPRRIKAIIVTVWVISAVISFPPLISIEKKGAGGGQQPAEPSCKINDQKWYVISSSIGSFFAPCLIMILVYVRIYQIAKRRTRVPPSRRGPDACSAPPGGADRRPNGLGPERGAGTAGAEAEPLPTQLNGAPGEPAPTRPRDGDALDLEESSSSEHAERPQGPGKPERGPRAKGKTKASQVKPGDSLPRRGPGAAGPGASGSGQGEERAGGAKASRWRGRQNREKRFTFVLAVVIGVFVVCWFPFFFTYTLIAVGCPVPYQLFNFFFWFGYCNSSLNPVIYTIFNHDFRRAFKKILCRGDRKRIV
Experimental: Frontal cortical tissue from the brains of male Charles River CD rats weighing between 150-250 g were homogenised in ice-cold 0.25M sucrose (1:30 w/v) and centrifuged at 1,000 g at 4° C. for 12 minutes. The supernatant was stored on ice and the pellet was rehomogenised in 0.25M sucrose (1:15 w/v) and centrifuged at 850 g at 4° C. for 12 minutes. Combined supernatants were diluted with 5 mM Tris-HCl (pH 7.5) containing 0.5M ethylenediamine tetraacetic acid (EDTA) readjusted to pH 7.5 (at 25° C.) with 1M sodium hydroxide to 1:80 w/v, and centrifuged at 30,000 g at 4° C. for 10 minutes. The resulting pellet was resuspended in 5 mM Tris-HCl (pH 7.5) containing 5.68 mM L-ascorbic acid and 5 mM EDTA readjusted to pH 7.5 (at 25° C.) with 1M sodium hydroxide, and centrifuged at 30,000 g for 10 minutes. The final pellet was resuspended in 50 mM Tris-HCl (pH 7.5) containing 5.68 mM L-ascorbic acid and 5 mM EDTA (equivalent to 12.5 mg wet weight of tissue/ml) and used immediately in the binding assay. Aliquots (400 μl; equivalent to 5 mg wet weight of tissue/tube) of this suspension were added to tubes containing the ligand (50 μl; 1 nM) and distilled water (50 μl; total binding) or phentolamine (50 μl; 5 μM; non-specificbinding) or test compound (50 μl; at a single concentration of 10^-6 M or at 10 concentrations ranging from 10^-11 -10^-3 M). The ligand was tritiated idazoxan ((1,4-[6,7(n)-^3 H]benzodioxan-2-yl)-2-imidazoline hydrochloride) and the mixture was incubated at 0° C. for 75 minutes before the incubation was terminated by rapid filtration.
(§1) The filters were washed with ice-cold Tris-HCl buffer and dried. The filters were punched out into vials, scintillation fluid added and radioactivity determined by liquid scintillation counting. The percentage displacement of specific binding of the tritiated ligand was calculated for the single concentration (10^-6 M) of test compound. Displacement curves were then produced for those compounds which displaced ≥50% of specific binding of the tritiated ligand at 10^-6 M using a range of concentrations of the compound. […] The inhibition coefficient Ki was then calculated using the formula [formula] in which [ligand] is the concentration of the tritiated ligand used and KD is the equilibrium dissociation constant for the ligand.

α1-adrenoceptors = assay: inhibition of tritiated ligand ([7-methoxy-^3 H]prazosin) binding to α1-adrenoceptors in vitro (whole cortical tissue); set-up: species or system rat (male Charles River CD); settings: rat whole cortical tissue; for Ki: 30° C., 30 minutes, > from highest concentration which displaced ≤50% of the ligand; for % displacement at 10^-6 M, α1: 30 min, 1 µM
Experimental: The supernatant was centrifuged at 30,000 g at 4° C. for 10 minutes. […] Aliquots (400 μl; equivalent to 5 mg wet weight of tissue/tube) of this suspension were added to tubes containing the ligand (50 μl; 0.1 nM) and distilled water (50 μl; total binding) or phentolamine (50 μl; 5 μM; non-specific binding) or test compound (50 μl; at a single concentration of 10^-6 M or at 10 concentrations ranging from 10^-11 -10^-3 M). The ligand was [7-methoxy-^3 H]prazosin and the mixture was incubated at 30° C. for 30 minutes before the incubation was terminated by rapid filtration.
as §1, with “The” for “The filters were washed with ice-cold Tris-HCl buffer and dried. The”

5-HT1A receptors = biological target: T2, 5-HT1A receptors (Rattus norvegicus, UniProt P19327); assay: biochemical; assay type: binding, rat (male Charles River CD); settings: for Ki: 25° C., 30 minutes
T2 sequence (P19327 1-422): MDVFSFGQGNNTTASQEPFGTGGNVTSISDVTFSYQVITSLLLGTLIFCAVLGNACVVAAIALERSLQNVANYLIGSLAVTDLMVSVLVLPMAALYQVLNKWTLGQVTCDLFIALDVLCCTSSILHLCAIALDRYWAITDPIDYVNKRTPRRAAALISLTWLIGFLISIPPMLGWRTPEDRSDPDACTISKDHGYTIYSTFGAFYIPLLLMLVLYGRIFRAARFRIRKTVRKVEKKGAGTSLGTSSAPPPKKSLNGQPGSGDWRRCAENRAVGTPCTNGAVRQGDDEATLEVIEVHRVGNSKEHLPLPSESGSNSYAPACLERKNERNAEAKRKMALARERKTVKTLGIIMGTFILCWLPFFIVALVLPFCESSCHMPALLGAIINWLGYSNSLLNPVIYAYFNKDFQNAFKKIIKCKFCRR
Experimental: The pellet was rehomogenised in the same buffer, incubated at 37° C. for 10 minutes and centrifuged at 30,000 g at 4° C. for 10 minutes. […] Aliquots (400 μl; equivalent to 2.5 mg wet weight of tissue/tube) of this suspension were added to tubes containing the ligand (50 μl; 2 nM) and distilled water (50 μl; total binding) or 5-HT (50 μl; 10 µM; non-specific binding) or test compound (50 μl; at a single concentration of 10^-6 M or at 10 concentrations ranging from 10^-11 -10^-3 M). The ligand was [^3 H]8-hydroxy-2-(dipropylamino)tetralin([^3 H]8-OH-DPAT) and the mixture was incubated at 25° C. for 30 minutes before the incubation was terminated by rapid filtration.
as §1, with “The” for “The filters were washed with ice-cold Tris-HCl buffer and dried. The”

[1] = rat striatal tissue, tritiated (S)-sulpiride, 4° C., 40 minutes
[2] = rat frontal cortical tissue, tritiated idazoxan
[3] = rat hippocampal tissue, [^3 H]8-OH-DPAT
[4] = 10^-6 M, rat hippocampal tissue, [^3 H]8-OH-DPAT, read-out: % displacement at 10^-6 M, 5-HT1A
[5] = read-out: % displacement at 10^-6 M, 5-HT1A, 10^-6 M, rat hippocampal tissue, [^3 H]8-OH-DPAT
[6] = 10^-6 M, rat hippocampal tissue, [^3 H]8-OH-DPAT

D2 dopamine receptors, sequence (P61169 whole entry): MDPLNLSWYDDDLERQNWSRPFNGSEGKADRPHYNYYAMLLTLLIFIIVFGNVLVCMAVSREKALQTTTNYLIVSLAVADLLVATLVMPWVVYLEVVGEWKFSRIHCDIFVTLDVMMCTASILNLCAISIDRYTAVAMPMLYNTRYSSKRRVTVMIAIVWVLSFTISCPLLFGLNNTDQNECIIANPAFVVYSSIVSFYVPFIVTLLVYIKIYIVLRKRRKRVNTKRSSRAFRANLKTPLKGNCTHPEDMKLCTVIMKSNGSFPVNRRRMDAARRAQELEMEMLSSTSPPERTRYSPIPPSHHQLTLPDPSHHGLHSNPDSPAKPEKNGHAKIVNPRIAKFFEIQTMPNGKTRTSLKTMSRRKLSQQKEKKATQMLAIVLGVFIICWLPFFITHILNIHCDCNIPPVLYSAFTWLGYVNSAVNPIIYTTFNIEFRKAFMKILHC

| Molecule | Ki (D2 dopamine receptors; [1]) [nM] | Ki (α2-adrenoceptors; [2]) [nM] | Ki (α1-adrenoceptors) [nM] | Ki (5-HT1A receptors; [3]) [nM] | % displacement at 10^-6 M, α1 (α1-adrenoceptors) [%] | other results |
| --- | --- | --- | --- | --- | --- | --- |
| FC(F)(F)c1cccnc1NCCNCC1COc2ccccc2O1 (stereo not drawn) [Example 8, N-(1,4-benzodioxan-2-ylmethyl)-N'-[3-(trifluoromethyl)-2-pyridyl)]-ethanediamine dihydrochloride] | 110 | 70 | 14 | 18.8 |  |  |
| COc1cccc2c1CC(CNCC1CCN(c3ncccn3)CC1)CC2 (stereo not drawn) [Example 9, N-(8-methoxy-1,2,3,4-tetrahydronaphth-2-ylmethyl)-1-[1-(pyrimidin-2-yl)piperid-4-yl]methylamine 1.1 hydrochloride] | 46.4 | > 500 | 34 | 8.2 |  |  |
| Oc1cccc2c1CC(CNCC1CCN(c3ncccn3)CC1)CC2 (stereo not drawn) [Example 10, 7-{N-[1-(pyrimidin-2-yl)piperid-4-ylmethyl}-aminomethyl)-5,6,7,8-tetrahydronaphth-1-ol dihydrobromide] | 310 | > 500 | 339 | 7.7 |  |  |
| COc1cccc2c1CC(CNCC1CCN(c3ncccn3)CC1)CO2 (stereo not drawn) [Example 11, N-(5-methoxy-3,4-dihydro-2H-1-benzopyran-3-ylmethyl)-1-(1-(pyrimidin-2-yl)piperid-4-yl]methylamine monofumarate] | 12.9 | > 500 | 31 | 14.7 |  |  |
| COc1ccccc1NCCCNCC1COc2cccc(OC)c2O1.O=C(O)/C=C\C(=O)O (stereo not drawn) [Example 17, N-(8-methoxy-1,4-benzodioxan-2-ylmethyl)-N'-(2-methoxyphenyl)-1,3-propanediamine maleate] | 4.3 | > 500 |  |  | 93 | inhibition at 1 µM (5-HT1A receptors; [4]): 99% |
| COc1ccccc1N1CCC(CNCC2COc3cc(Cl)c(Cl)cc3O2)CC1 (stereo not drawn) [Example 21, N-(6,7-dichloro-1,4-benzodioxan-2-ylmethyl)-1-[1-(2-methoxyphenyl)piperid-4-yl]methylaminehydrochloride] |  | > 500 | > 500 |  |  | inhibition at 1 µM (D2 dopamine receptors; 10^-6 M, rat striatal tissue, tritiated (S)-sulpiride, read-out: % displacement at 10^-6 M, D2): 104%; inhibition at 1 µM (5-HT1A receptors; [4]): 74% |
| Cl.Clc1ccccc1N1CCC(CNCC2COc3ccccc3O2)CC1 (stereo not drawn) [Example 22, N-(1,4-benzodioxan-2-ylmethyl)-1-[1-(2-chlorophenyl)piperid-4-yl]methylamine hydrochloride] | 43.5 |  |  |  | 71 | inhibition at 1 µM (α2-adrenoceptors): 63%; inhibition at 1 µM (5-HT1A receptors; [5]): 95% |
| COc1ccccc1N1CCC(CNCC2COc3ccc4ccccc4c3O2)CC1 (stereo not drawn) [Example 24, 1-[1-(2-methoxyphenyl)piperid-4-yl]-N-(naphtho[1,2-b]dioxan-2-ylmethyl) methylamine hydrochloride 1.3 hydrate] | 81.3 | > 500 | > 500 |  |  | inhibition at 1 µM (5-HT1A receptors; [4]): 97% |
| COc1cccc2c1OC(CNCC1CCN(c3cccc4c3OCC4)CC1)CO2.Cl (stereo not drawn) [Example 25, 1-[1-(2,3-dihydrobenzo[b]furan-7-yl)piperid-4-yl]-N-(8-methoxy-1,4-benzodioxan-2-ylmethyl) methylamine hydrochloride] | 20.9 |  |  |  | 99 | inhibition at 1 µM (α2-adrenoceptors): 96%; inhibition at 1 µM (5-HT1A receptors; [5]): 101% |
| N-(5-fluoro-1,4-benzodioxan-2-ylmethyl)-1-[1-(2-methoxyphenyl) piperid-4-yl]methylamine hydrochloride and N-(8-fluoro-1,4-benzodioxan-2-ylmethyl)-1-[1-(2-methoxyphenyl) piperid-4-yl]methylamine hydrochloride [Example 23] |  |  |  |  | 92 | Ki (D2 dopamine receptors): 43 nM; % displacement at 10^-6 M, α2 (α2-adrenoceptors; 10^-6 M, rat frontal cortical tissue, tritiated idazoxan, 1 µM): 75%; % displacement at 10^-6 M, 5-HT1A (5-HT1A receptors; [6]): 92% |
| N-(7-chloro-1,4-benzodioxan-2-ylmethyl)-1-[1-(2-methoxyphenyl) piperid-4-yl]methylamine and N-(6-chloro-1,4-benzodioxan-2-ylmethyl)-1-[1-(2-methoxy phenyl)-piperid-4-yl]methylamine 1.7 hydrochloride hydrate [Example 27] | 61.7 | > 500 |  |  | 58 | % displacement at 10^-6 M, 5-HT1A (5-HT1A receptors; [6]): 94% |
| N-(7-chloro-1,4-benzodioxan-2-ylmethyl)-1-[1-(2-methoxyphenyl) piperid-4-yl]methylamine and N-(6-chloro-1,4-benzodioxan-2-ylmethyl)-1-[1-(2-methoxyphenyl) piperid-4-yl]methylamine hydrochloride hydrate [Example 26] | 82.5 | > 500 | > 500 |  |  | % displacement at 10^-6 M, 5-HT1A (5-HT1A receptors; [6]): 88% |
